The source of these data is patent US4725598A, “Derivative of dihydroxybenzamide and a pharmaceutical composition having an anti-inflammatory activity” (priority 1983, dated 1988).

Read-outs that look alike come from different tables or passages of the source.

One data set concerns granuloma formation. The data set is classed as in vivo, male Donryu rats. Particulars: 10 days. On the procedure: The activity of the present compounds in inhibiting the granuloma formation was examined according to the method of Fujimura et al. (refer to "OYO YAKURI", 19(3), 329(1981)) while using male Donryu rats of 5 weeks after birth as follows.
(§1) After burying a paper disk of 13 mm in diameter and 0.26 mm in thickness immersed in an aqueous 2% solution of carboxymethylcellulose (hereinafter referred to as CMC) containing both dihydroxystreptomycin and penicillin (both of 10^6 unit at a rate of 0.1 mg/ml) into the back of each rat under anesthesia by ether, the rats were divided into four groups. To rats of the first group, an aqueous 0.3% solution of CMC was orally administered every day for 10 days, to rat of the second group, an aqueous dispersion of one of the present compounds shown in Table 3 in an aqueous 0.3% solution of CMC was orally administered every day for 10 days and to rat of the third and fourth groups, an aqueous 0.3% solution of CMC containing either indomethacin or prednisolone was orally administered every day for 10 days.
The rate of inhibiting the granuloma formation was obtained from the following formula: [formula] wherein T is the average weight of granuloma in the test group and C is the average weight of granuloma in the control group.

In a further data set the test system is adjuvant arthritis. The data set can be described thus: Inhibitory activity of adjuvant arthritis. In kind it is in vivo, male Lewis rats. Particulars: for Increment of the volume of hind paw after 21 days of injection (I1): at beginning of administration; for Increment of the volume of hind paw after 36 days of injection (I2) / Rate of inhibiting adjuvant arthritis: 14 days. The method, then: The activity of the present compound in inhibiting the adjuvant arthritis was examined while using groups of male Lewis rats of 8 weeks after birth and according to the method of Fujihira et al. (refer to "OYO YAKURI", 5(2), 169, (1971)) as follows.
Groups of 8 rats were used, and to each rat of whole groups under anesthesia by ether, a Freund's complete adjuvant dissolved in mineral oil at a concentration of 0.6 mg/0.1 ml was injected intradermally into the trail thereof.
After 3 weeks of the injection, to each rat of a group an aqueous dispersion of one of the present compounds shown in Table 4 in an aqueous 0.3% solution of CMC was orally administered every day for 14 days, and to each of the control group, the aqueous 0.3% solution of CMC was administered in a similar manner, each rat of the positive control group being treated with the similar oral administration of prednisolone in the aqueous 0.3% solution of CMC. The volume of the hind paw of each rat was measured on the day of starting the administration and on the next day after finishing the administration.
The results of the test are shown in Table 4 as the increment of the volume of the hind paw and the rate of inhibiting the increase of the volume thereof.
The increment of the volume of the hind paw at the beginning of the administration, namely after 21 days of the injection of the complete adjuvant (I1), and the increment of that after the finishing of the injection, namely after 36 days of the injection of the complete adjuvant (I2) are respectively as follows.
wherein V0 is the volume of the hind paw just before the injection, V1 is that after 21 days of the injection and V2 is that after 36 days of the injection.
The rate of inhibiting the increase of the volume of the hind paw, namely the activity of treating the adjuvant arthritis is obtained by the following formula: [formula]

Data set [1] concerns migration of polymorphonuclear leukocytes. The data set can be described thus: Inhibition of migration of polymorphonuclear leukocytes, in vivo pouch-CMC method. Also on record: species or system male Donryu rats. On the procedure: The activity of each of the present compounds in in vivo inhibiting the migration of polymorphonuclear leukocytes was examined by the pouch-CMC method presented by Ishikawa (refer to J. Pharmaceut. Soc., Japan, 88, 1472, 1968) using male Donryu rats.
After cutting the hairs on the back of each male Donryu rat at a 5 cm square, 5 ml of air were subcutaneously injected into the hair-cut position, and after 24 hours of the injection, 5 ml of a 0.2% solution of sodium carboxymethylcellulose in a saline was injected into the pouch made by the injected air.
After dividing the rats into 3 groups, an aqueous 0.2% solution of carboxymethylcellulose was orally administered to each rat of the first group at a rate of 1 ml/100 g body weight (as control), and each of the present compounds (Compounds Nos. 1, 2 and 4) was orally administered to each rat of the second group after suspending the compound in an aqueous 0.2% solution of carboxymethylcellulose. Each rat of the third group is orally administered with an aqueous solution of indomethacin as positive control.
After 3 and 6 hours of the injection, the exudates in the pouch were collected from each rat, and the number of polymorphonuclear leukocytes (hereinafter referred to as PMN) exudated was counted and, the results are shown in Table 2.

For another data set, the system named is platelet aggregation. As to the kind of experiment: Inhibitory activity of platelet aggregation (sodium arachidonate induced, platelet-rich plasma). In kind it is cell-based. As to conditions: Oryctolagus cuniculus, rabbit plasma, sodium arachidonate 400 μM, read-out: IC100 (concentration necessary for inhibiting platelet aggregation perfectly). The method, then: After collecting blood specimen from the auricular vein of a male rabbit of an ordinary race in the presence of citrate, the thus collected blood was subjected to centrifugation to obtain a platelet-rich plasma (PRP) and a platelet-poor plasma (PPP) therefrom. The plasma containing 300,000 platelets/μl was prepared by diluting the PRP with the PPP, and divided equally into two portions.
Into the first portion of the thus obtained plasma mixture, as control, dimethylsulfoxide was added, and then, an aqueous solution of sodium arachidonate as an aggregation agent prepared by dissolving thereof into a saline solution was added to the resultant mixture to adjust the final concentration of the arachidonate therein to 400 μM.
On the other hand, into the second portion thereof, a solution of each of the present compounds shown in Table 1 in dimethylsulfoxide was added, and then, the above-mentioned aqueous solution of sodium arachidonate was added to the resultant mixture.
The platelet aggregation reactions were measured with the aid of a platelet aggregation tracer (model PAT-4A, made by NIKO Bioscience Co., Ltd.) and its IC100 values (the concentration of an agent necessary for inhibiting platelet aggregation perfectly) are shown in Table 1.

On the set-up of data set [2]: species or system male Donryu rats. Particulars: rat, in vivo. The method, then:
as §1

For `CCCCCCCCNC(=O)c1ccc(O)c(O)c1` [Compound No. 1, N-(n-octyl)-3,4-dihydroxybenzamide], the entries for the “Rate of inhibition of granuloma formation” value with granuloma formation (25 mg/kg/day oral) and in the data set with granuloma formation (50 mg/kg/day oral) were 53% and 72%, respectively. For the same compound, the “Weight of dried granuloma” value with granuloma formation (25 mg/kg/day oral) worked out at 135 mg; in the data set with granuloma formation (50 mg/kg/day oral), 80 mg. Moreover, the “Increment of the volume of hind paw after 21 days of injection (I1)” value (“Increment of the volume of hind paw … (I1)” below) in the data set on adjuvant arthritis (25 mg/kg/day group) was found to be 1.29 mL; in the data set with adjuvant arthritis (50 mg/kg/day group), 1.28 mL. In addition, the “Increment of the volume of hind paw after 36 days of injection (I2)” value (“Increment of the volume of hind paw … (I2)” below) in the data set on adjuvant arthritis (25 mg/kg/day oral) is 0.65 mL; with adjuvant arthritis (50 mg/kg/day oral) it was 0.59 mL. Further, the “Rate of inhibiting adjuvant arthritis” value with adjuvant arthritis (25 mg/kg/day oral) is listed as 50%; with adjuvant arthritis (50 mg/kg/day oral), 54%. The “Inhibition rate of exudation of PMN” value was determined as 51.0% in data set [1] (after 3 hr, 50 mg/kg oral) and 22.9% in data set [1] (after 6 hr, 50 mg/kg oral). The “Number of PMN in exudated liquid” value is given as 2.4 (number/mm^3) × 10^3 in data set [1] (after 3 hr, 50 mg/kg oral) and 16.8 (number/mm^3) × 10^3 in data set [1] (after 6 hr, 50 mg/kg oral). In the data set with platelet aggregation, the IC100 is less than 18 µM.
With `CCCCNC(=O)c1ccc(O)c(O)c1` [compound 3, N--(n-butyl)-3,4-dihydroxybenzamide], in the data set on platelet aggregation, the IC100 is 45 µM.
With `C[C@]12C=CC(=O)C=C1CC[C@@H]1[C@@H]2[C@@H](O)C[C@@]2(C)[C@H]1CC[C@]2(O)C(=O)CO` [prednisolone, reference compound], in data set [2], the “autopsy findings, gastric” value was “hemorrhage from the gastric mucosa and formation of stomach ulcer were found”; the “autopsy findings, thymus” value is “atrophy of the thymus was significantly found”. For the same compound, in the data set with granuloma formation (3 mg/kg/day oral), the “Rate of inhibition of granuloma formation” value is given as 45% and the “Weight of dried granuloma” value came to 158 mg. The “Increment of the volume of hind paw … (I1)” value with adjuvant arthritis (3 mg/kg/day group) stood at 1.27 mL. For the same compound, in the data set on adjuvant arthritis (3 mg/kg/day oral), the “Increment of the volume of hind paw … (I2)” value came out at 0.71 mL and the “Rate of inhibiting adjuvant arthritis” value was determined as 44%.
Regarding `O=C(NCCCc1ccccc1)c1ccc(O)c(O)c1` [compound 6, N--(ω-phenylpropyl)-3,4-dihydroxybenzamide], the IC100 in the data set with platelet aggregation was 80 µM.
Regarding `CN1CCN(C(=O)c2ccc(O)c(O)c2)CC1` [compound 7, 3,4-dihydroxybenz-N--methylpiperazide], the IC100 with platelet aggregation is 300 µM.
Consider `O=C(c1ccc(O)c(O)c1)N1CCCCC1` [compound 4, 3,4-dihydroxybenzpiperidide], for which, in the data set with granuloma formation (25 mg/kg/day oral), the “Rate of inhibition of granuloma formation” value was found to be 49% and the “Weight of dried granuloma” value turned out to be 146 mg. Besides, in the data set on granuloma formation (50 mg/kg/day oral), the “Rate of inhibition of granuloma formation” value is recorded as 65% and the “Weight of dried granuloma” value was 101 mg. Also, in data set [1] (after 3 hr, 50 mg/kg oral), the “Inhibition rate of exudation of PMN” value is 46.9% and the “Number of PMN in exudated liquid” value is given as 2.6 (number/mm^3) × 10^3. Besides, in data set [1] (after 6 hr, 50 mg/kg oral), the “Inhibition rate of exudation of PMN” value is given as 25.2% and the “Number of PMN in exudated liquid” value was 16.3 (number/mm^3) × 10^3. Besides, the IC100 in the data set on platelet aggregation is 65 µM.
In the case of `CCCCCCCCCCCCNC(=O)c1ccc(O)c(O)c1` [compound 5, N--(n-dodecyl)-3,4-dihydroxybenzamide], in the data set with platelet aggregation, the IC100 is less than 18 µM.
As to `COc1ccc2c(c1)c(CC(=O)O)c(C)n2C(=O)c1ccc(Cl)cc1` [indomethacin, reference compound], the “autopsy findings, gastric” value in data set [2] is “hemorrhage from the gastric mucosa and formation of stomach ulcer were found”. In addition, in the data set with granuloma formation (3 mg/kg/day oral), the “Rate of inhibition of granuloma formation” value was determined as 39% and the “Weight of dried granuloma” value turned out to be 175 mg. Besides, in data set [1] (after 3 hr, 3 mg/kg oral), the “Inhibition rate of exudation of PMN” value was determined as 20.4% and the “Number of PMN in exudated liquid” value is listed as 3.9 (number/mm^3) × 10^3. In addition, in data set [1] (after 6 hr, 3 mg/kg oral), the “Inhibition rate of exudation of PMN” value is reported as 22.0% and the “Number of PMN in exudated liquid” value is given as 17.0 (number/mm^3) × 10^3.
For `O=C(Nc1ccccn1)c1ccc(O)c(O)c1` [Compound No. 2, N--(2-pyridyl)-3,4-dihydroxybenzamide], the “Rate of inhibition of granuloma formation” value with granuloma formation (25 mg/kg/day oral) is 64%; in the data set on granuloma formation (50 mg/kg/day oral), 76%. The “Weight of dried granuloma” value in the data set on granuloma formation (25 mg/kg/day oral) turned out to be 98 mg; in the data set with granuloma formation (50 mg/kg/day oral), 69 mg. The “Increment of the volume of hind paw … (I1)” value in the data set on adjuvant arthritis (25 mg/kg/day group) stood at 1.32 mL; in the data set with adjuvant arthritis (50 mg/kg/day group), 1.30 mL. Besides, the “Increment of the volume of hind paw … (I2)” value in the data set on adjuvant arthritis (25 mg/kg/day oral) came to 0.51 mL; in the data set with adjuvant arthritis (50 mg/kg/day oral), 0.53 mL. Also, the figures for the “Rate of inhibiting adjuvant arthritis” value in the data set with adjuvant arthritis (25 mg/kg/day oral) and in the data set with adjuvant arthritis (50 mg/kg/day oral) were 61% and 59%, respectively. The “Inhibition rate of exudation of PMN” value in data set [1] (after 3 hr, 50 mg/kg oral) is 53.1%; in data set [1] (after 6 hr, 50 mg/kg oral), 37.6%. Also, the “Number of PMN in exudated liquid” value in data set [1] (after 3 hr, 50 mg/kg oral) is given as 2.3 (number/mm^3) × 10^3; in data set [1] (after 6 hr, 50 mg/kg oral) it was 13.6 (number/mm^3) × 10^3. In addition, in the data set with platelet aggregation, the IC100 stood at 25 µM.
